# According to publication PMC7369637, “Inhibition of Resistance-Refractory P. falciparum Kinase PKG Delivers Prophylactic, Blood Stage, and Transmission-Blocking Antiplasmodial Activity” (Cell Chemical Biology, 2020):
# System: metabolite levels in Pf trophozoites and schizonts
# Test: Metabolomics (UHPLC-MS) of treated trophozoites and schizonts
# Type: cell-based, Plasmodium falciparum
# Method: Metabolomics experiments were performed as described elsewhere ([Murithi et al., 2019]). […] Following several washes, metabolites were extracted by 90% methanol containing 0.5 μM ^13C^15N-labelled aspartate as an internal standard. Nitrogen-dried samples were stored at -80°C. Samples were resuspended in high-performance liquid chromatography (HPLC) grade water that contained 1 μM chlorpropamide as an internal standard. They were then analyzed by ultra-high-performance liquid chromatography mass spectrometry UHPLC-MS ([Allman et al., 2016]). Data analysis was performed using the el-MAVEN software and the Metaboanalyst package in R Studio ([Murithi et al., 2019]).
structure (smiles),measurement,setting,value
"O=C1C(O)=C([C@H]2CC[C@H](c3ccc(Cl)cc3)CC2)C(=O)c2ccccc21 [ATQ, Atovaquone]",Log2 fold change in 2-Hydroxy-2-methylbutanedioic acid level,schizonts,-0.013
same,Log2 fold change in 2_3-Diphosphoglyceric acid level,schizonts,-0.049
same,Log2 fold change in 3-phosphoglycerate level,schizonts,-0.461
same,Log2 fold change in 4-aminobutyrate level,schizonts,0.163
same,Log2 fold change in 4-phosphopantothenate level,schizonts,-0.471
same,Log2 fold change in 6-phospho-D-gluconate level,schizonts,-0.038
same,Log2 fold change in ADP-D-glucose level,schizonts,0.078
same,Log2 fold change in CDP level,schizonts,-0.939
same,Log2 fold change in CMP level,schizonts,-0.776
same,Log2 fold change in D-glucosamine-1/6-phosphate level,schizonts,-0.254
same,Log2 fold change in D-sedoheptulose-1/7-phosphate level,schizonts,-0.253
same,Log2 fold change in DL-Pipecolic Acid level,schizonts,0.155
same,Log2 fold change in DLH level,schizonts,0.054
same,Log2 fold change in DLS level,schizonts,0.295
same,Log2 fold change in FAD level,schizonts,0.00635
same,Log2 fold change in FMN level,schizonts,-0.114
same,Log2 fold change in GDP level,schizonts,-0.131
same,Log2 fold change in GMP level,schizonts,0.068
same,Log2 fold change in HVDD level,schizonts,0.015
same,Log2 fold change in Hexose level,schizonts,0.028
same,Log2 fold change in IMP level,schizonts,0.230
same,Log2 fold change in N-Acetyl-L-alanine level,schizonts,-0.209
same,Log2 fold change in N-acetyl-L-ornithine level,schizonts,0.067
same,Log2 fold change in N-acetyl-glutamate level,schizonts,0.069
same,Log2 fold change in N-acetyl-glutamine level,schizonts,-0.075
same,Log2 fold change in N-carbamoyl-L-aspartate level,schizonts,2.103
same,Log2 fold change in NAD+ level,schizonts,-0.089
same,Log2 fold change in NADP+ level,schizonts,-0.036
same,Log2 fold change in NADPH level,schizonts,0.265
same,Log2 fold change in Octulose 8/1P level,schizonts,-0.088
same,Log2 fold change in Octulose Bisphosphate level,schizonts,-0.059
same,Log2 fold change in PD level,schizonts,0.272
same,Log2 fold change in PE level,schizonts,0.257
same,Log2 fold change in PEE level,schizonts,0.222
same,Log2 fold change in PEEK level,schizonts,0.220
same,Log2 fold change in PVNF level,schizonts,-0.058
same,Log2 fold change in Pyroglutamic acid level,schizonts,-0.420
same,Log2 fold change in Ribose-5-phosphate level,schizonts,-0.347
same,Log2 fold change in S-adenosyl-L-homocysteine level,schizonts,-0.090
same,Log2 fold change in Sedoheptulose bisphosphate level,schizonts,-0.159
same,Log2 fold change in UDP level,schizonts,-1.390
same,Log2 fold change in UDP-D-glucose level,schizonts,-0.006
same,Log2 fold change in UDP-D-glucuronate level,schizonts,-0.062
same,Log2 fold change in UDP-N-acetyl-glucosamine level,schizonts,-0.391
same,Log2 fold change in UMP level,schizonts,-1.267
same,Log2 fold change in a-ketoglutarate level,schizonts,-0.084
same,Log2 fold change in acetyl-CoA level,schizonts,-0.850
same,Log2 fold change in acetyl-aspartate level,schizonts,-0.355
same,Log2 fold change in alanine/sarcosine level,schizonts,-0.266
same,Log2 fold change in arginine level,schizonts,-0.203
same,Log2 fold change in asparagine level,schizonts,-0.008
same,Log2 fold change in aspartate level,schizonts,-0.839
same,Log2 fold change in coenzyme A level,schizonts,-0.075
same,Log2 fold change in cyclic-AMP level,schizonts,-0.213
same,Log2 fold change in cytidine level,schizonts,-0.213
same,Log2 fold change in dCDP level,schizonts,-0.147
same,Log2 fold change in dCMP level,schizonts,-0.462
same,Log2 fold change in dCTP level,schizonts,-0.058
same,Log2 fold change in dGDP/ADP level,schizonts,-0.147
same,Log2 fold change in dGMP/AMP level,schizonts,-0.148
same,Log2 fold change in dTDP level,schizonts,-1.164
same,Log2 fold change in dTMP level,schizonts,-1.035
same,Log2 fold change in dTTP level,schizonts,-0.979
same,Log2 fold change in dihydroorotate level,schizonts,3.181
same,Log2 fold change in folate level,schizonts,-0.209
same,Log2 fold change in fructose-1-6-bisphosphate level,schizonts,-0.277
same,Log2 fold change in fructose-6-phosphate level,schizonts,-0.212
same,Log2 fold change in fumarate level,schizonts,-0.532
same,Log2 fold change in glutamate level,schizonts,0.117
same,Log2 fold change in glutamine level,schizonts,-0.138
same,Log2 fold change in glutathione disulfide level,schizonts,-0.224
same,Log2 fold change in glutathione level,schizonts,-0.005
same,Log2 fold change in guanosine level,schizonts,0.426
same,Log2 fold change in histidine level,schizonts,-0.171
same,Log2 fold change in hydroxyproline/Aminolevulinate level,schizonts,-0.254
same,Log2 fold change in hypoxanthine level,schizonts,-0.139
same,Log2 fold change in inosine level,schizonts,-0.136
same,Log2 fold change in isoleucine level,schizonts,-0.252
same,Log2 fold change in lysine level,schizonts,0.587
same,Log2 fold change in malate level,schizonts,-0.393
same,Log2 fold change in maleic acid level,schizonts,-0.266
same,Log2 fold change in methionine level,schizonts,-0.241
same,Log2 fold change in nicotinate level,schizonts,-0.183
same,Log2 fold change in orotate level,schizonts,-1.303
same,Log2 fold change in pantothenate level,schizonts,-0.167
same,Log2 fold change in phenylalanine level,schizonts,-0.316
same,Log2 fold change in phosphoenolpyruvate level,schizonts,-0.095
same,Log2 fold change in proline level,schizonts,-0.320
same,Log2 fold change in pyruvate level,schizonts,-1.011
same,Log2 fold change in ribose level,schizonts,-0.223
same,Log2 fold change in ribose-phosphate level,schizonts,-0.313
same,Log2 fold change in ribulose-5-phosphate level,schizonts,-0.261
same,Log2 fold change in serine level,schizonts,0.028
same,Log2 fold change in sn-glycerol-3-phosphate level,schizonts,-0.021
same,Log2 fold change in succinate/Methylmalonic acid level,schizonts,-0.382
same,Log2 fold change in thiamine level,schizonts,-0.051
same,Log2 fold change in threonine/homoserine level,schizonts,-0.072
same,Log2 fold change in tryptophan level,schizonts,-0.203
same,Log2 fold change in tyrosine level,schizonts,-0.165
same,Log2 fold change in xanthosine level,schizonts,-0.209
same,Log2 fold change in xanthosine-5-phosphate level,schizonts,-0.537
same,Log2 fold change in 2-Hydroxy-2-methylbutanedioic acid level,trophozoites,-0.127
same,Log2 fold change in 2_3-Diphosphoglyceric acid level,trophozoites,-0.381
same,Log2 fold change in 3-phosphoglycerate level,trophozoites,-0.429
same,Log2 fold change in 4-aminobutyrate level,trophozoites,0.101
same,Log2 fold change in 4-phosphopantothenate level,trophozoites,-0.459
same,Log2 fold change in 6-phospho-D-gluconate level,trophozoites,-0.286
same,Log2 fold change in ADP-D-glucose level,trophozoites,-0.046
same,Log2 fold change in CDP level,trophozoites,-0.509
same,Log2 fold change in CMP level,trophozoites,-0.007
same,Log2 fold change in D-glucosamine-1/6-phosphate level,trophozoites,-0.044
same,Log2 fold change in D-sedoheptulose-1/7-phosphate level,trophozoites,-0.528
same,Log2 fold change in DL-Pipecolic Acid level,trophozoites,-0.217
same,Log2 fold change in DLH level,trophozoites,0.019
same,Log2 fold change in DLS level,trophozoites,-0.123
same,Log2 fold change in FAD level,trophozoites,-0.090
same,Log2 fold change in FMN level,trophozoites,-0.124
same,Log2 fold change in GDP level,trophozoites,0.014
same,Log2 fold change in GMP level,trophozoites,0.614
same,Log2 fold change in HVDD level,trophozoites,0.032
same,Log2 fold change in Hexose level,trophozoites,-0.376
same,Log2 fold change in IMP level,trophozoites,0.044
same,Log2 fold change in N-Acetyl-L-alanine level,trophozoites,-0.316
same,Log2 fold change in N-acetyl-L-ornithine level,trophozoites,0.096
same,Log2 fold change in N-acetyl-glutamate level,trophozoites,-0.170
same,Log2 fold change in N-acetyl-glutamine level,trophozoites,-0.082
same,Log2 fold change in N-carbamoyl-L-aspartate level,trophozoites,3.058
same,Log2 fold change in NAD+ level,trophozoites,-0.186
same,Log2 fold change in NADP+ level,trophozoites,-0.065
same,Log2 fold change in NADPH level,trophozoites,-0.700
same,Log2 fold change in Octulose 8/1P level,trophozoites,-0.033
same,Log2 fold change in Octulose Bisphosphate level,trophozoites,-0.267
same,Log2 fold change in PD level,trophozoites,0.177
same,Log2 fold change in PE level,trophozoites,0.343
same,Log2 fold change in PEE level,trophozoites,-0.149
same,Log2 fold change in PEEK level,trophozoites,0.046
same,Log2 fold change in PVNF level,trophozoites,-0.949
same,Log2 fold change in Pyroglutamic acid level,trophozoites,-0.555
same,Log2 fold change in Ribose-5-phosphate level,trophozoites,-0.276
same,Log2 fold change in S-adenosyl-L-homocysteine level,trophozoites,-0.313
same,Log2 fold change in Sedoheptulose bisphosphate level,trophozoites,-0.304
same,Log2 fold change in UDP level,trophozoites,-0.826
same,Log2 fold change in UDP-D-glucose level,trophozoites,-0.168
same,Log2 fold change in UDP-D-glucuronate level,trophozoites,-0.164
same,Log2 fold change in UDP-N-acetyl-glucosamine level,trophozoites,-0.499
same,Log2 fold change in UMP level,trophozoites,-0.377
same,Log2 fold change in a-ketoglutarate level,trophozoites,-0.00422
same,Log2 fold change in acetyl-CoA level,trophozoites,-0.783
same,Log2 fold change in acetyl-aspartate level,trophozoites,-0.358
same,Log2 fold change in alanine/sarcosine level,trophozoites,-0.389
same,Log2 fold change in arginine level,trophozoites,-0.197
same,Log2 fold change in asparagine level,trophozoites,-0.111
same,Log2 fold change in aspartate level,trophozoites,-0.858
same,Log2 fold change in coenzyme A level,trophozoites,-0.813
same,Log2 fold change in cyclic-AMP level,trophozoites,-0.306
same,Log2 fold change in cytidine level,trophozoites,-0.308
same,Log2 fold change in dCDP level,trophozoites,0.078
same,Log2 fold change in dCMP level,trophozoites,0.286
same,Log2 fold change in dCTP level,trophozoites,-0.396
same,Log2 fold change in dGDP/ADP level,trophozoites,-0.020
same,Log2 fold change in dGMP/AMP level,trophozoites,0.757
same,Log2 fold change in dTDP level,trophozoites,-0.522
same,Log2 fold change in dTMP level,trophozoites,0.797
same,Log2 fold change in dTTP level,trophozoites,-1.044
same,Log2 fold change in dihydroorotate level,trophozoites,4.182
same,Log2 fold change in folate level,trophozoites,-0.409
same,Log2 fold change in fructose-1-6-bisphosphate level,trophozoites,-0.330
same,Log2 fold change in fructose-6-phosphate level,trophozoites,-0.341
same,Log2 fold change in fumarate level,trophozoites,-0.377
same,Log2 fold change in glutamate level,trophozoites,0.025
same,Log2 fold change in glutamine level,trophozoites,-0.211
same,Log2 fold change in glutathione disulfide level,trophozoites,-0.238
same,Log2 fold change in glutathione level,trophozoites,-0.129
same,Log2 fold change in guanosine level,trophozoites,-0.368
same,Log2 fold change in histidine level,trophozoites,-0.281
same,Log2 fold change in hydroxyproline/Aminolevulinate level,trophozoites,-0.316
same,Log2 fold change in hypoxanthine level,trophozoites,-0.322
same,Log2 fold change in inosine level,trophozoites,-0.490
same,Log2 fold change in isoleucine level,trophozoites,-0.515
same,Log2 fold change in lysine level,trophozoites,0.274
same,Log2 fold change in malate level,trophozoites,-0.381
same,Log2 fold change in maleic acid level,trophozoites,-0.226
same,Log2 fold change in methionine level,trophozoites,-0.384
same,Log2 fold change in nicotinate level,trophozoites,-0.467
same,Log2 fold change in orotate level,trophozoites,0.364
same,Log2 fold change in pantothenate level,trophozoites,-0.383
same,Log2 fold change in phenylalanine level,trophozoites,-0.490
same,Log2 fold change in phosphoenolpyruvate level,trophozoites,-0.226
same,Log2 fold change in proline level,trophozoites,-0.424
same,Log2 fold change in pyruvate level,trophozoites,-0.797
same,Log2 fold change in ribose level,trophozoites,-0.358
same,Log2 fold change in ribose-phosphate level,trophozoites,-0.355
same,Log2 fold change in ribulose-5-phosphate level,trophozoites,-0.161
same,Log2 fold change in serine level,trophozoites,-0.067
same,Log2 fold change in sn-glycerol-3-phosphate level,trophozoites,0.064
same,Log2 fold change in succinate/Methylmalonic acid level,trophozoites,-0.878
same,Log2 fold change in thiamine level,trophozoites,-0.352
same,Log2 fold change in threonine/homoserine level,trophozoites,-0.156
same,Log2 fold change in tryptophan level,trophozoites,-0.225
same,Log2 fold change in tyrosine level,trophozoites,-0.394
same,Log2 fold change in xanthosine level,trophozoites,-0.306
same,Log2 fold change in xanthosine-5-phosphate level,trophozoites,-0.737
